Biological target: T1, μ-opioid receptor (Rattus norvegicus, UniProt P33535)
T1 construct: the forebrains are homogenized in Tris buffer in a Teflon®-glass homogenizer; from tissue; host or cells: forebrain of male Wistar rats (particulate membrane preparation)
Assay: Rat brain μ-opioid receptor binding assay ([3H]DAMGO)
Settings: 10 nM solutions of the compounds, read-out: MOR binding Ki
Summary of the method: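 Rat forebrain membranes from male Wistar rats, prepared in 50 mM Tris HCl pH 7.4, used for [3H]DAMGO binding. Filter-bound radioactivity measured by scintillation counting.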

T1 sequence (P33535 whole entry): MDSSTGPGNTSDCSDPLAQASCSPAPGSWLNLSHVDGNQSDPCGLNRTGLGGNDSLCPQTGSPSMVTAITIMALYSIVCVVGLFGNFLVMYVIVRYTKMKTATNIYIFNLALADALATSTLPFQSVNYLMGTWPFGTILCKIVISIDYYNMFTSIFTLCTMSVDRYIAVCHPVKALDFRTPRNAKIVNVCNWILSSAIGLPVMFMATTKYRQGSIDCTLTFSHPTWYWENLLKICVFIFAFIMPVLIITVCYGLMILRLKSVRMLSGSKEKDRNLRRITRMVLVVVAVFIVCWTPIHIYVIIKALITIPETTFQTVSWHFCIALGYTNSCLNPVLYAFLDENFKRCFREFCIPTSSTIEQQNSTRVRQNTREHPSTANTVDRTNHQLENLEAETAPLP

| Compound | Ki [nM] |
| --- | --- |
| CCNC(=O)c1ccc(C=C2CC3CCC(C2)N3Cc2ccc(Cl)s2)cc1 [Cpd 77] | 356 |
| CCNC(=O)c1ccc(C(=C2CC3CCC(C2)N3CC=C(C)C)c2ccc(CO)cc2)cc1 [Cpd 194] | 3.67 |
| CCNC(=O)c1ccc(C(=C2CC3CCC(C2)N3C(=O)OCC)c2cc(C)c(O)c(C)c2)cc1 [Cpd 173, 3-[(4-Ethylcarbamoyl-phenyl)-(4-hydroxy-3,5-dimethyl-phenyl)-methylene]-8-aza-bicyclo[3.2.1]octane-8-carboxylic acid ethyl ester] | 2070 |
| CCNC(=O)c1ccc(C=C2CC3CCC(C2)N3Cc2sccc2C)cc1 [Cpd 38] | 236 |
| CCNC(=O)c1ccc(C(=C2CC3CCC(C2)N3Cc2ccccn2)c2ccc(C(N)=O)cc2)cc1 [Cpd 183] | 5050 |

Same assay, conditions: MOR binding Ki

| Compound | Ki [nM] |
| --- | --- |
| CNC(=O)c1ccc(C=C2CC3CCC(C2)N3)cc1 [Cpd 103, 4-(8-Aza-bicyclo[3.2.1]oct-3-ylidenemethyl)-N-methyl-benzamide] | 10600 |
| CCNC(=O)c1ccc(C=C2CC3CCC(C2)N3CCc2ccccc2)cc1 [Cpd 50, N-Ethyl-4-(8-phenethyl-8-aza-bicyclo[3.2.1]oct-3-ylidenemethyl)-benzamide] | 44.3 |
| CCNC(=O)c1ccc(C(=C2CC3CCC(C2)N3Cc2ccsc2)c2ccc(CCC(=O)O)cc2)cc1 [Cpd 129] | 6.73 |
| CCNC(=O)c1ccc(C(=C2CC3CCC(C2)N3Cc2ccoc2)c2ccc(C(N)=O)cc2)cc1 [Cpd 177] | 1.34 |
| CCNC(=O)c1ccc(C(C#N)=C2CC3CCC(C2)N3Cc2ccoc2)cc1 (single isomer, unassigned) [Cpd 209] | 2.59 |
| CCNC(=O)c1ccc(C(=C2CC3CCC(C2)N3Cc2ccc3ccccc3n2)c2cccc(F)c2)cc1 [Cpd 3] | 74.1 |
| CCNC(=O)c1ccc(C(=C2CC3CCC(C2)N3Cc2ncc[nH]2)c2ccc3c(c2)OCO3)cc1 [Cpd 6] | 35.8 |
| CCNC(=O)c1ccc(C(=C2CC3CCC(C2)N3Cc2ccco2)c2cccc(CO)c2)cc1 [Cpd 179] | 8.43 |
| CCNC(=O)c1ccc(C(=C2CC3CCC(C2)N3Cc2ccccn2)c2cccc(-c3nnn[nH]3)c2)cc1 [Cpd 165] | 54.1 |
| CCNC(=O)c1ccc(C(=C2CC3CCC(C2)N3Cc2nccs2)c2cccc(CN)c2)cc1 [Cpd 160] | 7230 |
| CCNC(=O)c1ccc(C(=C2CC3CCC(C2)N3Cc2ccoc2)c2ccc(S(N)(=O)=O)cc2)cc1 [Cpd 138] | 49.5 |
| CCNC(=O)c1ccc(C=C2CC3CCC(C2)N3CC#Cc2ccccc2)cc1 [Cpd 59] | 31.6 |
| CCNC(=O)c1ccc(C(=C2CC3CCC(C2)N3CCc2ccccc2)c2ccc(NS(C)(=O)=O)cc2)cc1 [Cpd 185] | 58.9 |
| CCNC(=O)c1ccc(C(=C2CC3CCC(C2)N3Cc2[nH]cnc2C)c2ccc3c(c2)OCO3)cc1 [Cpd 11] | 46.2 |
| CCNC(=O)c1ccc(C(=C2CC3CCC(C2)N3Cc2ccc3ccccc3n2)c2cccc(NC(C)=O)c2)cc1 [Cpd 72] | 11.1 |
| CCNC(=O)c1ccc(C(=C2CC3CCC(C2)N3Cc2ccc3ccccc3n2)c2cccc(C(=O)O)c2)cc1 [Cpd 85] | 537 |
| CCNC(=O)c1ccc(C(=C2CC3CCC(C2)N3Cc2ccco2)c2ccc(C(N)=O)cc2)cc1 [Cpd 180] | 10 |
| CCNC(=O)c1ccc(C(=C2CC3CCC(C2)N3Cc2ccsc2)c2cc(C(=O)O)cc([N+](=O)[O-])c2)cc1 [Cpd 161] | 10000 |
| CCNC(=O)c1ccc(C=C2C[C@H]3CC[C@@H](C2)N3CCc2ccccc2)cc1 (single isomer, unassigned) [Cpd 41, (+)—N-Ethyl-4-(8-phenethyl-8-aza-bicyclo[3.2.1]oct-3-ylidenemethyl)-benzamide] | 124 |
| CCNC(=O)c1ccc(C=C2CC3CCC(C2)N3CCC(C(=O)N(C)C)(c2ccccc2)c2ccccc2)cc1 [Cpd 107, 4-[8-(3-Dimethylcarbamoyl-3,3-diphenyl-propyl)-8-aza-bicyclo[3.2.1]oct-3-ylidenemethyl]-N-ethyl-benzamide] | 22.8 |
| CCNC(=O)c1ccc(C(=C2CC3CCC(C2)N3)c2nnn[nH]2)cc1 (single isomer, unassigned) [Cpd 201] | 12300 |
| CCNC(=O)c1ccc(C(=C2CC3CCC(C2)N3C(=O)c2ccoc2)c2cccnc2)cc1 [Cpd 214] | 580 |
| CCNC(=O)c1ccc(C(=C2CC3CCC(C2)N3CC(=O)c2cc(C(=O)c3ccc(Cl)cc3)cn2C)c2ccccc2)cc1 [Cpd 88, 4-[(8{2-[4-(4-Chloro-benzoyl)-1-methyl-1H-pyrrol-2-yl]-2-oxo-ethyl}-8-azabicyclo[3.2.1]oct-3-ylidene)-phenyl-methyl]-N-ethyl-benzamide] | 551 |
| CCNC(=O)c1ccc(C(=C2CC3CCC(C2)N3Cc2ccco2)c2ccc(CCC(=O)O)cc2)cc1 [Cpd 125] | 47.6 |
| CCNC(=O)c1ccc(C(=C2CC3CCC(C2)N3Cc2ccco2)c2cccc(-c3nnn[nH]3)c2)cc1 [Cpd 164, N-ethyl-4{(8-furan-2-ylmethyl-8-aza-bicyclo[3.2.1]oct-3-ylidene)-[3-(1H-tetrazol-5-yl)-phenyl]-methyl}-benzamide] | 2.32 |
| CCNC(=O)c1ccc(C(=C2CC3CCC(C2)N3Cc2ccsc2)c2ccc(NS(C)(=O)=O)cc2)cc1 [Cpd 190] | 0.717 |
| CCNC(=O)c1ccc(C(=C2CC3CCC(C2)N3Cc2sccc2C)c2cnc3ccccc3c2)cc1 [Cpd 18] | 561 |

Test system: not given
Assay: not given
Settings: not given

| Compound | melting point [°C] |
| --- | --- |
| CNC(=O)c1ccc(C=C2CC3CCC(C2)N3)cc1 [Cpd 103, 4-(8-Aza-bicyclo[3.2.1]oct-3-ylidenemethyl)-N-methyl-benzamide] | 164 to 166 |
| CCNC(=O)c1ccc(C=C2CC3CCC(C2)N3CCC(C(=O)N(C)C)(c2ccccc2)c2ccccc2)cc1 [Cpd 107, 4-[8-(3-Dimethylcarbamoyl-3,3-diphenyl-propyl)-8-aza-bicyclo[3.2.1]oct-3-ylidenemethyl]-N-ethyl-benzamide] | 137 to 139 |
| CCNC(=O)c1ccc(C(=C2CC3CCC(C2)N3CC(=O)c2cc(C(=O)c3ccc(Cl)cc3)cn2C)c2ccccc2)cc1 [Cpd 88, 4-[(8{2-[4-(4-Chloro-benzoyl)-1-methyl-1H-pyrrol-2-yl]-2-oxo-ethyl}-8-azabicyclo[3.2.1]oct-3-ylidene)-phenyl-methyl]-N-ethyl-benzamide] | 195 to 196 |

Test system: acetylcholine bromide-induced abdominal constriction response
Assay: Mouse acetylcholine bromide-induced abdominal constriction assay
Format: in vivo
Settings: dose of 150 μmole/Kg p.o., 5.5 mg/kg acetylcholine bromide i.p. 30 min later, ten min observation
Description: Mouse Acetylcholine Bromide-Induced Abdominal Constriction Assay
The mouse acetylcholine-induced abdominal constriction assay (as described by Collier et al. in Brit. J. Pharmacol. Chem. Ther., 1968, 32:295-310 with minor modifications) was used to assess analgesic potency of the compounds of formula (I). The test drugs or appropriate vehicles were administered orally (p.o.) and 30 min later the animal received an intraperitoneal (i.p.) injection of 5.5 mg/kg acetylcholine bromide (Matheson, Coleman and Bell, East Rutherford, N.J.). The mice were then placed in groups of three into glass bell jars and observed for a ten min observation period for the occurrence of an abdominal constriction response (defined as a wave of constriction and elongation passing caudally along the abdominal wall, accompanied by a twisting of the trunk and followed by extension of the hind limbs). For compounds of the present invention, the percent inhibition of this response to a nociceptive stimulus (equated to % analgesia) was calculated as follows: [formula]

| Compound | inhibition response (percent inhibition of abdominal constriction response, equated to % analgesia) [%] |
| --- | --- |
| CCN(CC)C(=O)c1ccc(C(=C2CC3CCC(C2)N3C)c2ccccc2)cc1.Cl [Example 1, N,N-Diethyl-4-[(8-methyl-8-azabicyclo[3.2.1]oct-3-ylidene)phenylmethyl]benzamide Hydrochloride [1:1]] | 87 |
